Results reported in ChEMBL document CHEMBL1201862, “PubChem BioAssay data set” (2004).
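Exposure lasted 48 hours, with cells grown in 96-well plates and compounds tested at five concentrations. GI50 is the concentration that inhibits growth by half.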 Calls of active or inactive are those of the source. No stated cut-off is given here; in the data, active = GI50 up to about 1.1 µM and inactive = higher.

Key:
Experiment in all cases: NCI tumour cell line growth inhibition, 48 h
SR = tested on: SR
HL-60 = tested on: HL-60
SK-MEL-5 = tested on: SK-MEL-5
SW-620 = tested on: SW-620
UACC-257 = tested on: UACC-257
NCI-H226 = tested on: NCI-H226
CCRF-CEM = tested on: CCRF-CEM
OVCAR-3 = tested on: OVCAR-3
COLO 205 = tested on: COLO 205
KM-20L2 = tested on: KM-20L2
HOP-62 = tested on: HOP-62
CAKI-1 = tested on: CAKI-1
SNB-75 = tested on: SNB-75
HOP-92 = tested on: HOP-92
SNB-19 = tested on: SNB-19
DMS-114 = tested on: DMS-114
EKVX = tested on: EKVX
DMS-273 = tested on: DMS-273
A498 = tested on: A498
SF-295 = tested on: SF-295
SF-268 = tested on: SF-268
M14 = tested on: M14
786-0 = tested on: 786-0
XF498 = tested on: XF498
LOX IMVI = tested on: LOX IMVI
Malme-3M = tested on: Malme-3M
SNB-78 = tested on: SNB-78
DLD-1 = tested on: DLD-1
SK-OV-3 = tested on: SK-OV-3
OVCAR-4 = tested on: OVCAR-4
NCI-H522 = tested on: NCI-H522
HCC 2998 = tested on: HCC 2998
NCI-H23 = tested on: NCI-H23
UACC-62 = tested on: UACC-62
HCT-15 = tested on: HCT-15
K562 = tested on: K562
RXF 393 = tested on: RXF 393
SN12C = tested on: SN12C
LXFL 529 = tested on: LXFL 529
HT-29 = tested on: HT-29
SF-539 = tested on: SF-539
UO-31 = tested on: UO-31
OVCAR-5 = tested on: OVCAR-5
U-251 = tested on: U-251
RPMI-8226 = tested on: RPMI-8226
ACHN = tested on: ACHN
A549 = tested on: A549
KM12 = tested on: KM12
NCI-H460 = tested on: NCI-H460
SK-MEL-28 = tested on: SK-MEL-28
TK-10 = tested on: TK-10
SK-MEL-2 = tested on: SK-MEL-2
IGROV-1 = tested on: IGROV-1
HCT-116 = tested on: HCT-116
OVCAR-8 = tested on: OVCAR-8
M19-MEL = tested on: M19-MEL
MOLT-4 = tested on: MOLT-4
HOP-18 = tested on: HOP-18
NCI/ADR-RES = tested on: NCI/ADR-RES
MCF7 = tested on: MCF7

CCN(CCCl)CCCNc1c2ccccc2nc2ccc(OC)cc12
GI50 (SR): 0.0158 µM (active) | GI50 (HL-60): 0.039 µM (active) | GI50 (SK-MEL-5): 0.388 µM (active) | GI50 (SW-620): 0.0371 µM (active) | GI50 (UACC-257): 1.16 µM (inactive) | GI50 (NCI-H226): 0.0678 µM (active) | GI50 (CCRF-CEM): 0.0993 µM (active) | GI50 (OVCAR-3): 1.1 µM (active) | GI50 (COLO 205): 0.0964 µM (active) | GI50 (KM-20L2): 0.181 µM (active) | GI50 (HOP-62): 0.605 µM (active) | GI50 (CAKI-1): 0.0959 µM (active) | GI50 (SNB-75): 0.635 µM (active) | GI50 (HOP-92): 0.133 µM (active) | GI50 (SNB-19): 1.05 µM (active) | GI50 (DMS-114): 0.314 µM (active) | GI50 (EKVX): 1.02 µM (active) | GI50 (DMS-273): 0.059 µM (active) | GI50 (A498): 1.19 µM (inactive) | GI50 (SF-295): 0.115 µM (active) | GI50 (SF-268): 0.122 µM (active) | GI50 (M14): 0.522 µM (active) | GI50 (786-0): 0.114 µM (active) | GI50 (XF498): 0.116 µM (active) | GI50 (LOX IMVI): 0.129 µM (active) | GI50 (Malme-3M): 0.603 µM (active) | GI50 (SNB-78): 0.357 µM (active) | GI50 (DLD-1): 0.084 µM (active) | GI50 (SK-OV-3): 1.04 µM (active) | GI50 (OVCAR-4): 0.682 µM (active) | GI50 (NCI-H522): 0.144 µM (active) | GI50 (HCC 2998): 0.535 µM (active) | GI50 (NCI-H23): 0.12 µM (active) | GI50 (UACC-62): 0.118 µM (active) | GI50 (HCT-15): 0.257 µM | GI50 (K562): 0.0861 µM (active) | GI50 (RXF 393): 0.215 µM (active) | GI50 (SN12C): 0.0548 µM (active) | GI50 (LXFL 529): 0.0912 µM (active) | GI50 (HT-29): 0.0853 µM (active) | GI50 (SF-539): 0.142 µM (active) | GI50 (UO-31): 1.29 µM (inactive) | GI50 (OVCAR-5): 0.344 µM (active) | GI50 (U-251): 0.199 µM (active) | GI50 (RPMI-8226): 0.0637 µM (active) | GI50 (ACHN): 0.149 µM (active) | GI50 (A549): 0.232 µM (active) | GI50 (KM12): 0.141 µM (active) | GI50 (NCI-H460): 0.0802 µM (active) | GI50 (SK-MEL-28): 0.743 µM (active) | GI50 (TK-10): 1.01 µM (active) | GI50 (SK-MEL-2): 0.418 µM (active) | GI50 (IGROV-1): 0.102 µM (active) | GI50 (HCT-116): 0.0585 µM (active) | GI50 (OVCAR-8): 0.0857 µM (active) | GI50 (M19-MEL): 0.216 µM (active) | GI50 (MOLT-4): 0.0158 µM (active)

Cc1cc2c(=O)cc(-c3ccc(Cl)c(Cl)c3)oc2c(C(=O)O)c1C
GI50 (SK-MEL-5): > 100 µM (inactive) | GI50 (SW-620): > 100 µM (inactive) | GI50 (UACC-257): > 100 µM (inactive) | GI50 (NCI-H226): > 100 µM (inactive) | GI50 (CCRF-CEM): > 100 µM (inactive) | GI50 (OVCAR-3): > 100 µM (inactive) | GI50 (COLO 205): > 100 µM (inactive) | GI50 (KM-20L2): > 100 µM (inactive) | GI50 (CAKI-1): > 100 µM (inactive) | GI50 (SNB-75): 92.3 µM (inactive) | GI50 (SNB-19): > 100 µM (inactive) | GI50 (DMS-114): > 100 µM (inactive) | GI50 (EKVX): > 100 µM (inactive) | GI50 (SF-295): > 100 µM (inactive) | GI50 (SF-268): > 100 µM (inactive) | GI50 (M14): > 100 µM (inactive) | GI50 (786-0): > 100 µM (inactive) | GI50 (XF498): > 100 µM (inactive) | GI50 (LOX IMVI): > 100 µM (inactive) | GI50 (Malme-3M): > 100 µM (inactive) | GI50 (SNB-78): > 100 µM (inactive) | GI50 (DLD-1): > 100 µM (inactive) | GI50 (SK-OV-3): > 100 µM (inactive) | GI50 (HOP-18): > 100 µM (inactive) | GI50 (OVCAR-4): > 100 µM (inactive) | GI50 (NCI-H522): > 100 µM (inactive) | GI50 (NCI-H23): > 100 µM (inactive) | GI50 (UACC-62): > 100 µM (inactive) | GI50 (HCT-15): > 100 µM | GI50 (K562): > 100 µM (inactive) | GI50 (RXF 393): 76.6 µM (inactive) | GI50 (SN12C): > 100 µM (inactive) | GI50 (LXFL 529): > 100 µM (inactive) | GI50 (HT-29): > 100 µM (inactive) | GI50 (SF-539): > 100 µM (inactive) | GI50 (UO-31): > 100 µM (inactive) | GI50 (OVCAR-5): > 100 µM (inactive) | GI50 (U-251): > 100 µM (inactive) | GI50 (RPMI-8226): > 100 µM (inactive) | GI50 (ACHN): > 100 µM (inactive) | GI50 (A549): > 100 µM (inactive) | GI50 (KM12): > 100 µM (inactive) | GI50 (NCI-H460): > 100 µM (inactive) | GI50 (SK-MEL-28): > 100 µM (inactive) | GI50 (TK-10): > 100 µM (inactive) | GI50 (SK-MEL-2): > 100 µM (inactive) | GI50 (IGROV-1): > 100 µM (inactive) | GI50 (HCT-116): > 100 µM (inactive) | GI50 (OVCAR-8): > 100 µM (inactive) | GI50 (M19-MEL): > 100 µM (inactive) | GI50 (MOLT-4): > 100 µM (inactive)

O=C1Nc2ccccc2Nc2ccncc21
GI50 (HL-60): > 100 µM (inactive) | GI50 (SK-MEL-5): > 100 µM (inactive) | GI50 (SW-620): > 100 µM (inactive) | GI50 (UACC-257): > 100 µM (inactive) | GI50 (NCI-H226): > 100 µM (inactive) | GI50 (CCRF-CEM): > 100 µM (inactive) | GI50 (OVCAR-3): > 100 µM (inactive) | GI50 (COLO 205): > 100 µM (inactive) | GI50 (KM-20L2): > 100 µM (inactive) | GI50 (HOP-62): > 100 µM (inactive) | GI50 (CAKI-1): > 100 µM (inactive) | GI50 (NCI/ADR-RES): > 100 µM (inactive) | GI50 (SNB-75): > 76 µM (inactive) | GI50 (HOP-92): > 100 µM (inactive) | GI50 (SNB-19): > 100 µM (inactive) | GI50 (DMS-114): > 100 µM (inactive) | GI50 (EKVX): > 100 µM (inactive) | GI50 (DMS-273): > 100 µM (inactive) | GI50 (A498): > 100 µM (inactive) | GI50 (SF-295): > 100 µM (inactive) | GI50 (SF-268): > 100 µM (inactive) | GI50 (LOX IMVI): > 100 µM (inactive) | GI50 (Malme-3M): > 100 µM (inactive) | GI50 (SNB-78): > 100 µM (inactive) | GI50 (DLD-1): > 100 µM (inactive) | GI50 (SK-OV-3): > 100 µM (inactive) | GI50 (HOP-18): > 100 µM (inactive) | GI50 (OVCAR-4): > 100 µM (inactive) | GI50 (NCI-H522): > 100 µM (inactive) | GI50 (HCC 2998): > 100 µM (inactive) | GI50 (NCI-H23): > 100 µM (inactive) | GI50 (UACC-62): > 100 µM (inactive) | GI50 (HCT-15): > 100 µM | GI50 (K562): > 100 µM (inactive) | GI50 (RXF 393): > 100 µM (inactive) | GI50 (SN12C): > 31.6 µM (inactive) | GI50 (HT-29): > 100 µM (inactive) | GI50 (SF-539): > 100 µM (inactive) | GI50 (UO-31): > 100 µM (inactive) | GI50 (OVCAR-5): > 100 µM (inactive) | GI50 (U-251): > 100 µM (inactive) | GI50 (RPMI-8226): > 100 µM (inactive) | GI50 (A549): > 100 µM (inactive) | GI50 (KM12): > 100 µM (inactive) | GI50 (NCI-H460): > 100 µM (inactive) | GI50 (SK-MEL-28): > 100 µM (inactive) | GI50 (SK-MEL-2): > 100 µM (inactive) | GI50 (MCF7): > 100 µM (inactive) | GI50 (IGROV-1): > 100 µM (inactive) | GI50 (HCT-116): > 100 µM (inactive) | GI50 (OVCAR-8): > 100 µM (inactive) | GI50 (M19-MEL): > 100 µM (inactive) | GI50 (MOLT-4): > 100 µM (inactive)
